ChEMBL document CHEMBL1201862, “PubChem BioAssay data set” (2004)
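Compound exposure: 48 hours, 5 concentrations, 96-well plates. GI50: concentration for 50% inhibition of growth.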 Activity calls are given as the source filed them. No stated cut-off is given here; in the data, active = GI50 up to about 1.1 µM and inactive = higher. Non-standard residues stand in square brackets, D forms with d. Residues, ends and D or L forms follow the SMILES beside them. ξ: configuration not given here. ξLac(3-iPr) = CC(C)CC(O)C(=O)O; NMeV = CN[CH](C(=O)O)C(C)C; NMeA = CN[CH](C)C(=O)O; βAla = NCCC(=O)O

What was measured:
Assay in all cases: NCI-60 cell line screen, 48 h
NCI-H522 = tested on: NCI-H522
SNB-75 = tested on: SNB-75
SN12C = tested on: SN12C
SNB-19 = tested on: SNB-19
M14 = tested on: M14
Malme-3M = tested on: Malme-3M
SW-620 = tested on: SW-620
HCC 2998 = tested on: HCC 2998
NCI-H23 = tested on: NCI-H23
CAKI-1 = tested on: CAKI-1
MDA-MB-435 = tested on: MDA-MB-435
HL-60 = tested on: HL-60
PC-3 = tested on: PC-3
A549 = tested on: A549
SF-295 = tested on: SF-295
HOP-62 = tested on: HOP-62
IGROV-1 = tested on: IGROV-1
DU-145 = tested on: DU-145
MDA-MB-231 = tested on: MDA-MB-231
NCI-H460 = tested on: NCI-H460

Measured: GI50

O=C(Nc1cccc2ccccc12)c1ccccc1
inactive: NCI-H522 68.7 µM | SNB-75 21.8 µM | SN12C > 100 µM | SNB-19 > 100 µM | M14 > 100 µM | Malme-3M 88.3 µM | SW-620 34.4 µM | HCC 2998 > 100 µM | NCI-H23 > 100 µM | CAKI-1 99.1 µM | MDA-MB-435 22.6 µM | HL-60 > 100 µM | PC-3 72.3 µM | A549 > 100 µM | SF-295 > 100 µM | HOP-62 81.3 µM | IGROV-1 > 100 µM | DU-145 > 100 µM | MDA-MB-231 > 100 µM | NCI-H460 > 100 µM

Cc1cc(O)c(-c2cc(O)c(C)cc2O)cc1O
inactive: NCI-H522 4.04 µM | SNB-75 14.9 µM | SN12C 6.25 µM | SNB-19 18.9 µM | M14 7.67 µM | Malme-3M 11.1 µM | SW-620 2.34 µM | HCC 2998 14.1 µM | NCI-H23 10.5 µM | CAKI-1 6.07 µM | MDA-MB-435 3.05 µM | HL-60 1.71 µM | PC-3 11.6 µM | A549 17.8 µM | SF-295 16.7 µM | HOP-62 16.7 µM | IGROV-1 11.5 µM | DU-145 14.9 µM | MDA-MB-231 14.2 µM | NCI-H460 18.7 µM

COc1ccc(CC2OC3(CCCCC3)CC3CCCCN32)cc1 (stereo not given)
inactive: NCI-H522 > 100 µM | SNB-75 91.2 µM | SN12C > 100 µM | SNB-19 > 100 µM | M14 76.6 µM | Malme-3M > 100 µM | SW-620 39.4 µM | HCC 2998 > 100 µM | NCI-H23 > 100 µM | CAKI-1 > 100 µM | MDA-MB-435 50 µM | HL-60 > 100 µM | PC-3 > 100 µM | A549 > 100 µM | SF-295 > 100 µM | HOP-62 > 100 µM | IGROV-1 > 100 µM | DU-145 > 100 µM | MDA-MB-231 10.3 µM | NCI-H460 > 100 µM

NCCCc1ccc2oc3ccccc3c2c1
inactive: NCI-H522 17.1 µM | SNB-75 16.8 µM | SN12C 17 µM | SNB-19 16 µM | M14 15.8 µM | Malme-3M 17.5 µM | SW-620 18.9 µM | HCC 2998 10.6 µM | NCI-H23 20.6 µM | CAKI-1 16.2 µM | MDA-MB-435 15.7 µM | HL-60 11.4 µM | PC-3 18.7 µM | A549 17.1 µM | SF-295 18.5 µM | HOP-62 17.6 µM | IGROV-1 20.6 µM | DU-145 16.9 µM | MDA-MB-231 17.7 µM | NCI-H460 17 µM

COc1cc(C2SC(=N)Nc3c2c(C)nn3C(=O)c2ccc(Cl)cc2)ccc1O (stereo not given)
inactive: NCI-H522 > 10 µM | SNB-75 > 10 µM | SN12C > 10 µM | SNB-19 > 10 µM | M14 > 10 µM | Malme-3M > 10 µM | SW-620 > 10 µM | HCC 2998 > 10 µM | NCI-H23 > 10 µM | CAKI-1 > 10 µM | MDA-MB-435 > 10 µM | HL-60 > 10 µM | PC-3 > 10 µM | A549 > 10 µM | SF-295 > 10 µM | HOP-62 > 10 µM | IGROV-1 > 10 µM | DU-145 > 10 µM | MDA-MB-231 > 10 µM | NCI-H460 > 10 µM

CC(C)(C)c1cc(OCc2nnc3sc(S)nn23)c(Cl)cc1OCc1nnc2sc(S)nn12
inactive: NCI-H522 17.3 µM | SNB-75 38.8 µM | SN12C 30.4 µM | SNB-19 35.5 µM | M14 25.9 µM | Malme-3M 16.6 µM | SW-620 31.9 µM | HCC 2998 31.8 µM | NCI-H23 28.7 µM | CAKI-1 33.6 µM | MDA-MB-435 23.6 µM | HL-60 22.5 µM | PC-3 50.9 µM | A549 35.1 µM | SF-295 27.9 µM | HOP-62 44.1 µM | IGROV-1 23.2 µM | DU-145 30.3 µM | MDA-MB-231 36.6 µM | NCI-H460 29 µM

O=C(Nc1ccccc1)c1nn(-c2cc(S(=O)(=O)O)c([N+](=O)[O-])cc2Cl)[n+](-c2cc(S(=O)(=O)[O-])c([N+](=O)[O-])cc2Cl)n1
inactive: NCI-H522 > 100 µM | SNB-75 > 100 µM | SN12C > 100 µM | SNB-19 > 100 µM | M14 > 100 µM | Malme-3M > 100 µM | SW-620 > 100 µM | HCC 2998 > 100 µM | NCI-H23 > 100 µM | CAKI-1 > 100 µM | MDA-MB-435 > 100 µM | HL-60 40.8 µM | PC-3 > 100 µM | A549 > 100 µM | SF-295 > 100 µM | HOP-62 > 100 µM | IGROV-1 > 100 µM | DU-145 > 100 µM | MDA-MB-231 43.6 µM | NCI-H460 > 100 µM

C[N+](C)(C)CCCCCc1c2nc(c(CCCCC[N+](C)(C)C)c3ccc([nH]3)c(CCCCC[N+](C)(C)C)c3nc(c(CCCCC[N+](C)(C)C)c4ccc1[nH]4)C=C3)C=C2
inactive: NCI-H522 > 100 µM | SNB-75 > 100 µM | SN12C > 100 µM | SNB-19 > 100 µM | M14 > 100 µM | Malme-3M > 100 µM | SW-620 > 100 µM | HCC 2998 > 100 µM | NCI-H23 > 100 µM | CAKI-1 > 100 µM | MDA-MB-435 > 100 µM | HL-60 > 100 µM | PC-3 > 100 µM | A549 87.9 µM | SF-295 > 100 µM | HOP-62 > 100 µM | IGROV-1 > 100 µM | DU-145 > 100 µM | MDA-MB-231 > 100 µM | NCI-H460 67.3 µM

CCC(C)C1NC(=O)C2CCCN2C(=O)C(CC(C)C)OC(=O)CCNC(=O)C(C)N(C)C(=O)C(C(C)C)N(C)C1=O (stereo not given) (cyclo([ξLac(3-iPr)]PI[NMeV][NMeA][βAla]); configuration not given here)
active: HL-60 0.593 µM
inactive: NCI-H522 6.05 µM | SNB-75 15.5 µM | SN12C 6.84 µM | SNB-19 49 µM | M14 1.91 µM | Malme-3M 6.55 µM | SW-620 3.73 µM | HCC 2998 2.13 µM | NCI-H23 9.84 µM | CAKI-1 6.95 µM | MDA-MB-435 2.43 µM | PC-3 1.79 µM | A549 4.82 µM | SF-295 2.5 µM | HOP-62 2.77 µM | IGROV-1 5.83 µM | DU-145 4.05 µM | MDA-MB-231 6.24 µM | NCI-H460 1.19 µM
